Laboratory results taken from the NIST ThermoML archive (doi:10.1016/j.tca.2014.05.028).
Numbers after ± are expanded uncertainties.

Experiments:
[1] = Molar enthalpy of transition or fusion; details: DSC
[2] = for mass density: 101 kPa, Liquid, Vibrating tube method; for Triple point temperature: DTA

Row | Structure (SMILES) | Molar enthalpy of transition or fusion ([1]; Crystal) | mass density ([2]; 298.15 K) | mass density ([2]; 303.15 K) | mass density ([2]; 308.15 K) | mass density ([2]; 313.15 K) | mass density ([2]; 318.15 K) | mass density ([2]; 323.15 K) | mass density ([2]; 328.15 K) | mass density ([2]; 333.15 K) | mass density ([2]; 338.15 K) | mass density ([2]; 343.15 K) | Triple point temperature ([2]; Crystal) | Molar enthalpy of transition or fusion ([1]; Crystal 1) | Molar enthalpy of transition or fusion ([1]; Crystal 2) | Triple point temperature ([2]; Crystal 1) | Triple point temperature ([2]; Crystal 2)
1 | CCCC[N+]1(C)CCCC1.[Br-] [1-butyl-1-methylpyrrolidinium bromide] | 13.1 ± 0.45 kJ/mol | 1221.19 ± 2.9 kg/m3 | 1217.27 ± 2.9 kg/m3 | 1213.38 ± 2.8 kg/m3 | 1209.51 ± 2.8 kg/m3 | 1205.66 ± 2.8 kg/m3 | 1201.84 ± 2.8 kg/m3 | 1198.05 ± 2.8 kg/m3 | 1194.28 ± 2.8 kg/m3 | 1190.53 ± 2.7 kg/m3 | 1186.8 ± 2.7 kg/m3 | 487.67 ± 0.41 K | – | – | – | –
2 | CCCCC[N+]1(C)CCCC1.[Br-] [1-methyl-1-pentylpyrrolidinium bromide] | – | 1188.96 ± 0.4 kg/m3 | 1185.14 ± 0.4 kg/m3 | 1181.35 ± 0.4 kg/m3 | 1177.58 ± 0.4 kg/m3 | 1173.84 ± 0.39 kg/m3 | 1170.12 ± 0.39 kg/m3 | 1166.42 ± 0.39 kg/m3 | 1162.75 ± 0.39 kg/m3 | 1159.1 ± 0.38 kg/m3 | 1155.48 ± 0.38 kg/m3 | – | 8.97 ± 0.33 kJ/mol | 1.95 ± 0.16 kJ/mol | 431.55 ± 0.41 K | 326.85 ± 0.41 K
3 | CCC[N+]1(C)CCCC1.[Br-] [1-methyl-1-propylpyrrolidinium bromide] | – | 1259.96 ± 1.4 kg/m3 | 1255.92 ± 1.4 kg/m3 | 1251.9 ± 1.4 kg/m3 | 1247.91 ± 1.4 kg/m3 | 1243.94 ± 1.4 kg/m3 | 1240 ± 1.4 kg/m3 | 1236.08 ± 1.4 kg/m3 | 1232.19 ± 1.4 kg/m3 | 1228.32 ± 1.3 kg/m3 | 1224.48 ± 1.3 kg/m3 | – | 10.8 ± 0.38 kJ/mol | 2.92 ± 0.2 kJ/mol | 476.68 ± 0.41 K | 465.12 ± 0.41 K
